Measurements: ChEMBL document CHEMBL1201862, “PubChem BioAssay data set” (2004)
The source made the active and inactive calls.

Columns and labels:
[1] = target: T1, High affinity choline transporter 1 (Homo sapiens, UniProt Q9GZV3); assay: human choline transporter blockers, potency – cell-based, 5-point CRC, membrane potential dye, dose response (AID 504840); assay type: functional
T1 sequence (Q9GZV3 whole entry): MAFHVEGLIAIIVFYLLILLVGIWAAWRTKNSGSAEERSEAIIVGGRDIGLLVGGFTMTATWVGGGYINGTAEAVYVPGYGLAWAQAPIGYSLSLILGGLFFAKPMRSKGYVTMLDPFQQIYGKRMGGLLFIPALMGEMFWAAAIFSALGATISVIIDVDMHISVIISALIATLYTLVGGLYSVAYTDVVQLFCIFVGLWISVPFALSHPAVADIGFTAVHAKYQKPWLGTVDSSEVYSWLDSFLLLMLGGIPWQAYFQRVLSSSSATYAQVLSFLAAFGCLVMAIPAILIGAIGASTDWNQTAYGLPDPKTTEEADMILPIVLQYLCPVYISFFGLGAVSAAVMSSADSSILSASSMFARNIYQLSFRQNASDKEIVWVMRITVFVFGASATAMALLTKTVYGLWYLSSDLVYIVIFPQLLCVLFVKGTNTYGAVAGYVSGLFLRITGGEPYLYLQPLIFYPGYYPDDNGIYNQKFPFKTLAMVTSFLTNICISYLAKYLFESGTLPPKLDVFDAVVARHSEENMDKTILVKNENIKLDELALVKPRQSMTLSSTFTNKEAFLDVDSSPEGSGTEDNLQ

[2] = target: T2, Calpain-2 catalytic subunit (Sus scrofa, UniProt P43367); assay: m-calpain protease blockers, concentration series – biochemical, fluorogenic peptide substrate, dose response (AID 1420); assay type: functional
T2 sequence (P43367 whole entry): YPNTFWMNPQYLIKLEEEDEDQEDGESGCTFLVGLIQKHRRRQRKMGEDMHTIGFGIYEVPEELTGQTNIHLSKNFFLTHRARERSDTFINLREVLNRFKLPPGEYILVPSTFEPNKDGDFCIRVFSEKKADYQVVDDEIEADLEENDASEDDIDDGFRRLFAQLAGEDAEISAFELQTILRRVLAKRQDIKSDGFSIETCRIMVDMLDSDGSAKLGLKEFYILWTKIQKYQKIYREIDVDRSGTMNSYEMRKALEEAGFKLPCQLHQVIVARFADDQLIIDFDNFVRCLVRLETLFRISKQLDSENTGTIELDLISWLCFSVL

[3] = target: FAD-linked sulfhydryl oxidase ALR (Homo sapiens, UniProt P55789); assay: ALR-catalysed DTT oxidation blockers – biochemical, H2O2 detection, luminescence, cherry-pick, dose response (AID 493248)
Sequence of FAD-linked sulfhydryl oxidase ALR (P55789 whole entry): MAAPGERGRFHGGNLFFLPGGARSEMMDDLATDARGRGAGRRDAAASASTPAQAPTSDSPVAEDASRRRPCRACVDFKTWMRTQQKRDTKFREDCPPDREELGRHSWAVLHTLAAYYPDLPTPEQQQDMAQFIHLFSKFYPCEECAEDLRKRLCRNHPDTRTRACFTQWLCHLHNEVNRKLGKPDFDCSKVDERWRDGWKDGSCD

BJ [4] = assay: BJ-TERT-LT-ST fibroblast viability loss – cell-based, RAS-independent, luminescence, dose response (AID 1935); assay type: functional; conditions: Homo sapiens;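 also: BJ fibroblasts immortalized with TERT plus LT and ST oncogenes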
[5] = DRD fibroblast viability loss – cell-based, non-viral oncogenic, luminescence, dose response (AID 1934); assay type: functional; conditions: Homo sapiens
BJ [6] = assay: BJ-TERT fibroblast viability loss – cell-based, RAS-independent, luminescence, dose response (AID 1933); assay type: functional; conditions: Homo sapiens
BJ [7] = assay: cells; assay type: functional, cell-based; conditions: Homo sapiens
Paired box protein Pax-8 = Paired box protein Pax-8 (Homo sapiens, UniProt Q06710); assay: PAX8 transcriptional activity inhibition in RMG-I – RMG-I cells, luciferase, cherry-pick, dose response (AID 687027); assay type: functional, cell-based;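 also: luciferase reporter driven by Pax8 target thyroperoxidase promoter measured by SteadyGlo luminescence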
Sequence of Paired box protein Pax-8 (Q06710 whole entry): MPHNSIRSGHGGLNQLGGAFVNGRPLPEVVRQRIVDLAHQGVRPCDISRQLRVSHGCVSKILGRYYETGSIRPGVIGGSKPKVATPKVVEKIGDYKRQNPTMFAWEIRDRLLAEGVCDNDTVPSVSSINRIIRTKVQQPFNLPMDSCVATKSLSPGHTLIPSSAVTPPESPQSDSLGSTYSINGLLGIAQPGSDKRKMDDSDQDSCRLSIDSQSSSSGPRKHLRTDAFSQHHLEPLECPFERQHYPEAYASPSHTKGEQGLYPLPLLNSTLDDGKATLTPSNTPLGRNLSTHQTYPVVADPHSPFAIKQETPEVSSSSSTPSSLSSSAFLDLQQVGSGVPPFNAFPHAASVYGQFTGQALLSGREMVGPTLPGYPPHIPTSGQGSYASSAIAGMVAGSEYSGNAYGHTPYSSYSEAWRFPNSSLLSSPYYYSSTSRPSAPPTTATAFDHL

cells = assay type: functional
[8] = target: T3, Rac GTPase-activating protein 1 (Homo sapiens, UniProt Q9H0H5); assay: blockers of MgcRacGAP-driven Rac1 GTP hydrolysis – biochemical, ADP Hunter fluorescence, primary and confirmatory, confirmation (AID 624330); assay type: functional
T3 sequence (Q9H0H5 whole entry): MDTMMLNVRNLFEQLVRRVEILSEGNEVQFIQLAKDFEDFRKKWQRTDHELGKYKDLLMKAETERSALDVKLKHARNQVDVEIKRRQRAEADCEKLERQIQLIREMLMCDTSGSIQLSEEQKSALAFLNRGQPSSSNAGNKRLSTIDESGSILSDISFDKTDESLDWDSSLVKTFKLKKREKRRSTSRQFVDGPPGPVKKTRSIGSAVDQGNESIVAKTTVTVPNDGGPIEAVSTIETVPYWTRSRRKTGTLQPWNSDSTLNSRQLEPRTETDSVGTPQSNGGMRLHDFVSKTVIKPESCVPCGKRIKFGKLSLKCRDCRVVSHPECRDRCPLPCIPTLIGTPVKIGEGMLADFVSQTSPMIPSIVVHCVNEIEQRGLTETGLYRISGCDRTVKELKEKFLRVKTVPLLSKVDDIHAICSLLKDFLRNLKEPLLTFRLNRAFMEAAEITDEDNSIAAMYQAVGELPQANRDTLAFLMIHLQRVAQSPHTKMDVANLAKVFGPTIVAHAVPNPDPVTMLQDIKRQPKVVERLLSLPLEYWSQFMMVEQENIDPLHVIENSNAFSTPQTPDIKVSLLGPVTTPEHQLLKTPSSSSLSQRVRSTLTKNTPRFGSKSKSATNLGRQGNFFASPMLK

## CC(C)(C)CC(C)(C)N=C(S)Nc1ccc2nc(-c3ccccn3)c(-c3ccccn3)nc2c1
[1]
  IC50: 26.3 µM (active)

## CCN1CCn2c3c(c4cc(Cl)ccc42)CCCC31 (stereo not drawn)
[1]
  IC50: 3.31 µM (active)

## CCCNC(=O)c1c(CSc2ccccc2)noc1C(=O)NCc1ccccc1
[2]
  IC50: 3.24 µM (not active)

## ClCc1csc(-c2ccc(Cl)cc2)n1
[3]
  AC50: 4.37 µM (active)

## Cc1cc(NC(=O)CSc2nc(-c3ccco3)cc(C(F)(F)F)n2)n(-c2ccccc2)n1
BJ [4]
  EC50: > 75 µM (not active)
[5]
  EC50: 14.9 µM (active)
BJ [6]
  EC50: 17.6 µM (inconclusive)
BJ [7]
  EC50: 64.5 µM (inconclusive)

## O=C(NNc1cc(Cl)cc(Cl)c1)c1cccs1
[1]
  IC50: 16.2 µM (active)

## CC(C)NC[C@H](O)c1ccc(O)c(O)c1
[1]
  IC50: 4.17e-05 µM (inconclusive)

## Cc1ccc(NCc2nnc3n2CCCCC3)c(C)c1
[3]
  AC50: 1.35 µM (active)

## CCCCn1c(S)nnc1-c1csc2c1CCC(C)C2 (stereo not drawn)
[2]
  IC50: 18.2 µM (not active)

## COc1ccc(S(=O)(=O)Nc2ccc3c(c2)C(=O)N([C@H](C)CO)C[C@@H](C)[C@H](CN(C)C(=O)Nc2ccc(C(F)(F)F)cc2)OCCCC[C@H](C)O3)cc1
Paired box protein Pax-8
  AC50: 7.32 µM (active)

## CCOc1ccc(OCC(=O)Nc2ccc(OC)cc2)cc1
cells
  IC50: 26.4 µM (active)

## Cc1cccc(/C=C/C(=O)c2ccc(N3CCOCC3)cc2)c1
[2]
  IC50: 15.7 µM (not active)

## C/C(CC(=O)Nc1ccc(N(C)C)cc1)=N\NC(=O)c1ccc([N+](=O)[O-])cc1
[3]
  AC50: 5.09 µM (active)
[8]
  IC50: 62.3 µM (active)

## COc1ccc(C(=O)N/N=C/c2ccc(OC)c(CN3CCN(c4ccc(F)cc4)CC3)c2)cc1
Paired box protein Pax-8
  AC50: 35.8 µM (active)

## CCN1C/C(=C/c2ccc(N3CCOCC3)cc2)C(=O)/C(=C/c2ccc(N3CCOCC3)cc2)C1
BJ [4]
  EC50: 5.64 µM (active)
[5]
  EC50: 5.96 µM (active)
BJ [6]
  EC50: 7.89 µM (active)
BJ [7]
  EC50: 11 µM (inconclusive)

## NS(=O)(=O)c1ccc(NNC(=O)c2ccc(Br)o2)c([N+](=O)[O-])c1
[3]
  AC50: 8.06 µM (active)
